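Cultured in 96-well plates, cells were exposed to test compound for 48 hours across five concentrations. GI50: concentration for 50% inhibition of growth. TGI: concentration producing complete growth inhibition.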
Columns and labels:
Test in all cases: growth of human tumour cells (NCI), 48 h
HL-60(TB) leukemia = test system: HL-60(TB) leukemia
SF-268 CNS = test system: SF-268 CNS
NCI-H460 lung = test system: NCI-H460 lung
CCRF-CEM leukemia = test system: CCRF-CEM leukemia
SNB-19 CNS = test system: SNB-19 CNS
A549 NSCLC = test system: A549 NSCLC
UACC-257 melanoma = test system: UACC-257 melanoma
SW-620 colon = test system: SW-620 colon
MCF7 breast = test system: MCF7 breast
DU-145 prostate = test system: DU-145 prostate

SMILES | TGI (HL-60(TB) leukemia) [µM] | TGI (SF-268 CNS) [µM] | TGI (NCI-H460 lung) [µM] | TGI (CCRF-CEM leukemia) [µM] | TGI (SNB-19 CNS) [µM] | TGI (A549 NSCLC) [µM] | TGI (UACC-257 melanoma) [µM] | TGI (SW-620 colon) [µM] | GI50 (HL-60(TB) leukemia) [µM] | GI50 (SF-268 CNS) [µM] | GI50 (NCI-H460 lung) [µM] | GI50 (CCRF-CEM leukemia) [µM] | GI50 (SNB-19 CNS) [µM] | GI50 (A549 NSCLC) [µM] | GI50 (MCF7 breast) [µM] | TGI (MCF7 breast) [µM] | GI50 (DU-145 prostate) [µM] | TGI (DU-145 prostate) [µM] | GI50 (SW-620 colon) [µM] | GI50 (UACC-257 melanoma) [µM]
C[N+](C)(C)CC(=O)N/N=C(/C=C/c1ccccc1)CC1OC(=O)c2ccccc21 (stereo unspecified) | > 100 | > 100 | > 100 | > 100 | > 100 | > 100 | > 100 | > 100 |  |  |  |  |  |  |  |  |  |  |  | 
COc1ccccc1/C=C1\COc2ccc(O)c(O)c2C1=O | 4.49 | 8.42 | 4.09 | 2.11 | 26.2 | > 100 |  | 4.2 | 0.407 | 2.22 | 1.83 | 0.286 | 2.61 | 2.95 | 0.36 | > 100 | 2.32 | > 100 | 1.48 | 
Clc1ccc(Cl)c(N/N=C\c2c[nH]c3ccccc23)c1 |  | > 100 | > 100 | 11.7 | 29.4 | 29.4 | 28.9 | 24.6 |  | > 100 | > 100 | 0.107 | 13.2 | 14.1 | > 100 | > 100 | 10.7 | 22.6 | 10.3 | 15.2
CN(C)CCCn1cnc2ncccc2c1=O |  | > 100 | > 100 | > 100 | > 100 | > 100 |  | > 100 |  |  |  |  |  |  |  |  |  |  |  | 
CCOP1(=O)OCC2OC(n3cnc4c(N)ncnc43)C(O)C2O1 (stereo unspecified) | > 100 | > 100 | > 100 |  | > 100 | > 100 | > 100 | > 100 |  |  |  |  |  |  |  | > 100 |  | > 100 |  | 
CCc1ccc(Cc2ccc(CC)c(NC(=O)C(=O)Cc3nc4ccccc4nc3C)c2CC)c(CC)c1NC(=O)C(=O)Cc1nc2ccccc2nc1C | > 100 | > 100 | > 100 | > 100 | > 100 | > 100 | > 100 | > 100 |  |  |  |  |  |  |  |  |  |  |  | 
COc1ccc(NC(=O)c2ccc(NC3=C(Cl)C(=O)N(Cc4ccccc4)C3=O)cc2)cc1 |  | > 100 | > 100 |  | 40.4 | 29.9 | 24.8 | > 100 | 2.16 | 31.5 | 53.1 |  | 18 | 10.4 | 7.9 | > 100 | 5 | 24.3 | 4.83 | 9.14
CCCCNC(=S)Nn1c(-c2ccccc2)nc2ccccc2c1=O | > 100 | > 100 | > 100 | > 100 |  | > 100 | > 100 | > 100 |  |  |  |  |  |  |  |  |  |  |  | 
O=c1[nH]nc(-c2ccccc2)c(-c2ccccc2)c1-n1nc(-c2ccccc2)c2ccccc2c1=O |  | > 100 | > 100 | > 100 |  | > 100 | > 100 | > 100 |  |  |  |  |  |  |  |  |  |  |  | 
CCC12C=CCN3CC[C@]4(C(=C(C(=O)OC)[C@@H]1Nc1ncnc5c1ncn5C1OC(COC(C)=O)C(OC(C)=O)C1OC(C)=O)Nc1ccccc14)C32 (stereo partly specified) | 7.39 | 5.11 | 5.99 | 6.81 | 12.1 | 13.2 | 16.8 | 5.31 |  |  |  |  |  |  |  |  |  |  |  | 
COC(=O)C1=Cc2cc3c(cc2[C@H](c2ccc4c(c2)OCO4)C1C(=O)OC)OCO3 (stereo partly specified) | > 100 | > 100 | > 100 | > 100 | > 100 | > 100 | > 100 | > 100 |  |  |  |  |  |  |  |  |  |  |  | 
CC/C(=C(\c1ccccc1)c1ccc(OCCN(C)C)cc1)c1ccccc1 |  |  |  |  |  |  |  |  | 1.78 |  |  | 2.33 |  | 2.93 | 1.12 |  |  |  | 2.95 | 0.971
CCN(CC)CCN(C)CC(C)(C)C(=O)/C=C/c1ccccc1 | 28.9 | 27.2 | 20.3 | 38.4 | 28.4 | 47.2 | 24.4 | 24.2 |  |  |  |  |  |  |  |  |  |  |  | 
CCN(CC)CCn1c(=N)n(CC(O)c2ccc(Cl)c(Cl)c2)c2ccccc21 (stereo unspecified) | 22.2 | 25.3 | 17.9 |  | 28.8 |  |  | 24.8 | 5.12 | 11.9 | 4.97 |  | 13.5 |  | 2.83 | 8.56 | 13.9 | 26.8 | 11 | 
COC1CCC(=C2C(=O)OC(C)(C)OC2=O)N1 (stereo unspecified) | > 100 | > 100 | > 100 | > 100 | > 100 | > 100 | > 100 | > 100 |  |  |  |  |  |  |  |  |  |  |  | 
COc1ccc(CN(O)C2C(CO)OC(n3cc(I)c(=O)[nH]c3=O)C2O)cc1 (stereo unspecified) | > 100 | > 100 | > 100 | > 100 | > 100 | > 100 | > 100 | > 100 |  |  |  |  |  |  |  |  |  |  |  | 

SMILES | TGI (HL-60(TB) leukemia) [µM] | TGI (SF-268 CNS) [µM] | TGI (NCI-H460 lung) [µM] | TGI (CCRF-CEM leukemia) [µM] | TGI (SNB-19 CNS) [µM] | TGI (A549 NSCLC) [µM] | TGI (UACC-257 melanoma) [µM] | TGI (SW-620 colon) [µM] | GI50 (HL-60(TB) leukemia) [µM] | GI50 (SF-268 CNS) [µM] | GI50 (NCI-H460 lung) [µM] | GI50 (CCRF-CEM leukemia) [µM] | GI50 (SNB-19 CNS) [µM] | GI50 (A549 NSCLC) [µM] | GI50 (MCF7 breast) [µM] | TGI (MCF7 breast) [µM] | GI50 (DU-145 prostate) [µM] | TGI (DU-145 prostate) [µM] | GI50 (SW-620 colon) [µM] | GI50 (UACC-257 melanoma) [µM]
C=CCCc1cc(OC)ccc1CN(C)C(C)(C)CO |  | > 100 | > 100 | > 100 | > 100 | > 100 | > 100 | > 100 |  |  |  |  |  |  |  |  |  |  |  | 
COc1ccc(NC(=O)CC/C(CC(=O)c2ccco2)=N/Nc2ccc([N+](=O)[O-])cc2[N+](=O)[O-])cc1 | 88.8 | > 100 | > 100 | 85.1 | > 100 | > 100 | > 100 | > 100 |  |  |  |  |  |  |  |  |  |  |  | 
CC(=O)Oc1c(-c2ccccc2)[nH]c2cc([N+](=O)[O-])c(/C(Cl)=C/c3ccccc3)cc12 | 10.7 | > 100 | 70.2 | 29.5 | 94.2 | 44.5 | 27.7 | 29.3 |  |  |  |  |  |  |  |  |  |  |  | 
CN(C)C1(C#N)CCC2(CC1)OCCO2 | > 100 | > 100 | > 100 | > 100 | > 100 | > 100 | > 100 | > 100 |  |  |  |  |  |  |  |  |  |  |  | 
CC(C)NC(=O)OCc1nnn2c1C(OC(=O)NC(C)C)CC2 (stereo unspecified) |  |  | > 100 |  | > 100 | > 100 | > 100 | > 100 |  |  |  |  |  |  |  |  |  |  |  | 
CC/C=C/[C@@H]1C=C[C@@H]2CCC[C@H]2[C@@H]1CC[C@H](O)[C@H](C)N | 2.91 | 3.42 | 3.46 | 84.3 |  | 7.05 |  | 3 | 1.33 | 1.71 | 1.84 | 4.65 |  | 2.26 | 1.52 | 2.85 | 1.93 | 3.98 | 1.64 | 
COC(=O)C1=C(O)C(O)=C(C(=O)OC)CC1 | > 100 | > 100 | > 100 | > 100 | > 100 | > 100 | > 100 | > 100 |  |  |  |  |  |  |  |  |  |  |  | 
C=C1C(=O)O[C@@H]2[C@@H]3O[C@@](C)(CC/C=C(\C)CCC[C@@H]2C)[C@H](O)C[C@@H]13 | 8.1 | 10 | 31.6 | 21.3 | 28.6 | 14.7 | 4.27 | 3.96 |  | 3.04 |  | 3.01 | 14.6 | 3.73 |  |  |  | 19.4 | 2.03 | 1.29
C=C1C(=O)OC2C1C(OC(=O)/C(=C/C)COC(C)=O)CC1(CO1)C1C(OC(=O)/C(=C/C)CO)C=C(C)C21 (stereo unspecified) | 2.34 | 9.35 | 28.3 | 2.13 | 13.9 | 24.8 | 6.99 | 9.56 |  |  |  |  |  |  |  |  |  |  |  | 
CN1CCC(O)C(CNC23CC4CC(CC(C4)C2)C3)C1 (stereo unspecified) | > 100 | > 100 | > 100 | > 100 | > 100 | > 100 | > 100 | > 100 |  |  |  |  |  |  |  |  |  |  |  | 
CC(=O)OC1COC(N2C(=O)C(=O)c3c(C)cc(Cl)nc32)C(OC(C)=O)C1OC(C)=O (stereo unspecified) | > 100 | > 100 | > 100 | > 100 | > 100 | > 100 | > 100 | > 100 |  |  |  |  |  |  |  |  |  |  |  | 
O=C(c1ccccc1)c1nnn(Cc2cccc(Cl)c2)c1C(=O)c1ccccc1 | > 100 | > 100 | > 100 | > 100 | > 100 | > 100 | > 100 | > 100 |  |  |  |  |  |  |  |  |  |  |  | 
CCCCN(CCCC)C(=Nc1ccccc1)N(CCCC)CCCC | 4.09 | 46.8 | 19.1 | 24.4 | 32 | 27.9 | 37.5 | 15.8 |  |  |  |  |  |  |  |  |  |  |  | 
N#Cc1c([N+](=O)[O-])cc(C(F)(F)F)cc1[N+](=O)[O-] |  | 27.3 | 40.3 |  | 32.4 | 37.6 | 19.2 | 8.77 |  |  |  |  |  |  |  |  |  |  |  | 
CCCCc1ccc2nc(NC(=O)OC)[nH]c2c1 |  | 16.9 | 6.17 |  | > 100 | > 100 |  | > 60.5 |  | 0.0616 | 0.0378 | 0.0342 | 0.0487 | 0.0868 | 0.0343 | > 52.1 | 0.0406 | 0.278 | 0.0325 | 
CCc1nc(N)nc(N)c1-c1ccc(Cl)cc1 | > 100 | > 100 | > 100 |  | > 100 | > 100 | > 100 | > 100 | 6.67 | 6.89 | 1.73 |  | 7.75 | 2.23 | 15.3 | > 100 | 13.2 | > 100 | 3.99 | 10.3
